Measurements taken from patent publication US4980474A, “Apovincaminic acid derivatives” (Taisho Pharmaceutical Co., Ltd., priority 1988, dated 1990).

Assays:
femoral artery = experiment: Effect on increase of blood flow, femoral artery (anesthetized dogs); assay type: in vivo; settings: 50 μg/kg intraarterially
Protocol: (§1) Effect on increase of blood flow was examined using dogs anesthetized with 5% pentbarbital sodium (30 mg/kg). The drugs [2-nitroxyethyl (+)-apovincaminate and 3-nitroxyl-n-propyl apovincaminate of the present invention and ethyl (+)-apovincaminate as control] were administered intraarterially in an amount of each 50 μg/kg, comparisons were made of the blood flows in the femoral artery, vertebral artery and common coronary artery before and after administration of the drugs, and the increase ratios of the blood flows were expressed by percent in Table 1.

vertebral artery = experiment: Effect on increase of blood flow, vertebral artery (anesthetized dogs); assay type: in vivo; settings: 50 μg/kg intraarterially
Protocol: as §1

common coronary artery = experiment: Effect on increase of blood flow, common coronary artery (anesthetized dogs); assay type: in vivo; settings: 50 μg/kg intraarterially
Protocol: as §1

[1] = tested on: basilar and femoral artery rings, K^+ contraction; experiment: Inhibition of basilar and femoral artery contraction induced by K^+; parameters: species or system Mongrel dogs; settings: Canis lupus familiaris; 64 mM K^+; Krebs-Ringer, isolated dog artery rings
Protocol: (§2) The test was carried out according to the method of Sonia Jancar et al described in European Journal of Pharmacology, vol. 136, page 345 (1987). Mongrel dogs were killed by anesthetization with pentbarvital (60 mg/kg), the brain was rapidly removed, and the basilar artery was dissected. The femoral artery was picked up at the same time. The isolated blood vessel was cut into rings 5 mm wide, which were soaked in 5 ml of a Krebs-Ringer solution under a resting tension of 1 g. The solution was kept with 95% oxygen and 5% carbon dioxide. To each of the solution in which the blood vessel rings were soaked were added 64 mM of potassium ion (K^+), 10^-5 M of norepinefurin (NE) and 10^-6 M of serotonine (5HT), respectively, and the resulting blood contractions were measured by FD pick up. To the blood vessel rings each was administered the drug [2-nitroxyethyl (+)-apovincaminate of the present invention and ethyl (+)-apovincaminate as control], and the concentrations (IC50) required to produce 50% inhibitions of the contractions by the administration of K^+, NE and 5TH, respectively, were measured.

[2] = tested on: basilar and femoral artery rings, NE contraction; experiment: Inhibition of basilar and femoral artery contraction induced by norepinephrine (NE); parameters: species or system Mongrel dogs; settings: Canis lupus familiaris; 10^-5 M norepinephrine; Krebs-Ringer, isolated dog artery rings
Protocol: as §2

[3] = tested on: basilar and femoral artery rings, 5HT contraction; experiment: Inhibition of basilar and femoral artery contraction induced by serotonin (5HT); parameters: species or system Mongrel dogs; settings: Canis lupus familiaris; 10^-6 M serotonin; Krebs-Ringer, isolated dog artery rings
Protocol: as §2

[4] = tested on: spontaneous spindle bursts (abnormal EEG pattern in aged rats); experiment: Improvement of abnormalities of electroencephalogram (EEG) in aged rats; assay type: in vivo, male Wistar rats; settings: 10 mg/kg intraperitoneally; for Time up to which the spontaneous spindle burst reappeared: aged rats 23-24 months; for increment of the time up to which the spontaneous spindle wave reappeared versus group treated with vitamin C only: number in parentheses
Protocol: Six male Wistar rats (23-24 months old) were used for each group. The electrodes were implanted on the frontal and occipital cortexes and hippocamus, and the rats were housed for 14 days for applying to the test. The rats operated were each put into an acoustically shielded box with the minimum light amount and tamed for 60 minutes while keeping the behavior free, and then the recording of EEG was started. Thirty minutes after the starting the recording of EEG, the drug (used the same as those in Experiment 2) dissolved in 1 ml of an aqueous vitamin C solution was intraperitoneally administered in the amount of 10 mg per 1 kg of the body weight of the rat. The spontaneous spindle bursts (abnormal EEG pattern in aged rats) were disappeared after the intraperitoneal administration and reappeared after a certain time. [Neurobiology of Aging, vol. 7, page 115 (1986)]. The time up to which the spontaneous spindle burst reappeared was measured. Group which received 10% aqueous vitamin C solution only was tested for comparison. Number in parentheses means the increment of the time (minutes) up to which the spontaneous spindle wave reappeared after the drug administration when compared with that of the group treated with vitamin C only.

| Structure (SMILES) | Increase of blood flow, Femoral artery (femoral artery) [%] | Increase of blood flow, Bertebral artery (vertebral artery) [%] | Increase of blood flow, Common coronary artery (common coronary artery) [%] | IC50 [1] [µM] | IC50 [2] [µM] | IC50 [3] [µM] | activity relative to drug B (control) in terms of the increment of the time up to which the spontaneous spindle burst reappeared ([4]; aged rats) | Time up to which the spontaneous spindle burst reappeared [4] [min] | increment of the time up to which the spontaneous spindle wave reappeared versus group treated with vitamin C only ([4]; aged rats) [min] |
| --- | --- | --- | --- | --- | --- | --- | --- | --- | --- |
| CC[C@@]12C=C(C(=O)OCCO[N+](=O)[O-])n3c4c(c5ccccc53)CCN(CCC1)[C@H]42 [Drug A, 2-nitroxyethyl (+)-apovincaminate] | 86.8 | 72.3 | 71.1 | 1.17 | 22.3 | 6.02 | about 3 times | 41 | 31 |
| CC[C@@]12C=C(C(=O)OCCCO[N+](=O)[O-])n3c4c(c5ccccc53)CCN(CCC1)[C@H]42 [3-Nitroxy-n-propyl (+)-apovincaminate] | 28.2 | 45.7 | 44.3 |  |  |  |  |  |  |
| CCOC(=O)C1=C[C@]2(CC)CCCN3CCc4c(n1c1ccccc41)[C@@H]32 [Drug B, Ethyl (+)-apovincaminate, reference compound] | 14.8 | 21.8 | 15.5 | 2.5 | 63.1 | 100 |  | 21 | 11 |
